Values quoted from earlier work, collected in patent US20050260613A1 (priority 2003, published 2005).

System: AD patients
Settings: presence of the ApoE4 allele

## Nc1c2c(nc3ccccc13)CCCC2 [tacrine]
  response to treatment in presence of the ApoE4 polymorphism: reduced response
